Experimental data reported in US9612243B1, “Methods and compositions for targeted two-dimensional western blot analysis for early cancer detection and cancer diagnosis up to ten years in advance of clinical symptoms of malignant disease” (Mor-NuCo Enterprises, Inc., priority 2016, dated 2017).

T1: ENOX2 (Homo sapiens, UniProt Q16206)
T1 sequence (Q16206 1-610): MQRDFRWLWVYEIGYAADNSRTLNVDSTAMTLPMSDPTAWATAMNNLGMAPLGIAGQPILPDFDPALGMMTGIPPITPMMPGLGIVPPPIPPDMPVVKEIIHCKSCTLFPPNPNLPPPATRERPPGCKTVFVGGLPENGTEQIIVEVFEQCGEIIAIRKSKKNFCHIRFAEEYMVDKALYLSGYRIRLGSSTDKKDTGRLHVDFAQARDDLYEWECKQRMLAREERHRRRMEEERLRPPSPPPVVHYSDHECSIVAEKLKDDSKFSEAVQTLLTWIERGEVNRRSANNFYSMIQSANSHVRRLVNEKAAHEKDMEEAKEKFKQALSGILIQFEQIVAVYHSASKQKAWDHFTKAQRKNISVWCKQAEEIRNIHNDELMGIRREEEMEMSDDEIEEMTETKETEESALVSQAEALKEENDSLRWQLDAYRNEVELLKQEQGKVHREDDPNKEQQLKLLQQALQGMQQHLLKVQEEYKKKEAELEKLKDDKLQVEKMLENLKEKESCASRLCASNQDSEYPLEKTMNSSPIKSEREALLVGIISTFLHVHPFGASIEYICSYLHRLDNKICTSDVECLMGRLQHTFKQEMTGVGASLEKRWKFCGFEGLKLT

B1: recombinant scFv: pan ENOX2 recombinant single chain variable region (scFv) antibody carrying an S tag, alkaline phosphatase linked (antibody, V domains shown)
VH: EVKLQESGTEVVKPGASVKLSCKASGYIFTSYDIDWVRQTPEQGLEWIGWIFPGEGSTEYNEKFKGRATLSVDKSSSTAYMELTRLTSEDSAVYFCARGDYYRRYFDLWGQGTTVTVSS
VL: ENVLTQSPAIMSASPGERVTMTCSASSSIRYIYWYQQKPGSSPRLLIYDTSNVAPGVPFRFSGSGSGTSYSLTINRMEAEDAATYYCQEWSGYPYTFGGGTKLELK
modifications: left off: things letters cannot carry; another chain or arm of the molecule; a dimerising Fc or GST; small tags and cut ends
notes: pan ENOX2 recombinant single chain variable region (scFv) antibody carrying an S tag, alkaline phosphatase linked

Key:
[1] = molecular target: T1, ENOX2; assay: ENOX2 activity versus NADH concentration, Lineweaver-Burke plot with and without antibody; format: biochemical; settings: FIG. 2
Source text: FIG. 2 is a graph that depicts the relationship of ENOX2 activity and concentration of NADH.

[2] = molecular target: T1, ENOX2; assay: 2-D gel electrophoresis/western blot, incubation with 15 μM NADH compared to no NADH; settings: 15 μM NADH in the assay compared to no NADH, FIG. 1
Experimental: In order to maintain an active ENOX2 during western blotting with antibody, following blocking for 10 minutes with 1% milk and two rinses with TBST to remove excess milk, reduced pyridine nucleotides [NAD(P)H] were added at a concentration of 15 μM during incubation with the primary scFv antibody. NADH is preferred at a final concentration in the range of 10 μM. Incubation of the blot with antibody with or without shaking at any temperature between 4° C. and 40° C. for times of 1 to 16 hours depending on the concentration of NADH, the temperature and the antibody titer, preferably with incubation at 4° C. overnight (approximately 16 hours) with shaking.

[3] = tested on: heavy (ca. 52 kDa) and light (ca. 25 kDa) immunoglobulin chain proteins; assay: 2-D gel/western blot cross-reactivity with serum proteins; format: binding, human; settings: on some blots
Source text: Separation in the first dimension was by isoelectric focusing over the pH range of 3 to 10 and separation in the second dimension was by 10 percent SDS-PAGE. Isoelectric points of the ENOX2 transcript variants were in the range of 3.2 to 6.3. The principal reactive proteins other than the ENOX2 forms were a 53 kDa isoelectric point pH 4.1, mostly phosphorylated alpha-fetuin (Labeled “R” in FIG. 8) which served as a convenient loading control and isoelectric point reference and a 79-85 kDa, isoelectric point pH 6.8 serotransferrin which served as a second point of reference for loading and as an isoelectric point reference. The two cross reactive reference proteins are present in a majority of sera and plasma of both cancer and non-cancer subjects.
For western blot analysis, 30 μL of sera was added to 120 μL of Rehydration Buffer (7M urea, 2 M thiourea, 2% (w/v) CHAPS [(3-[(3-cholamidopropyl)dimethylammonio]-1-propane-sulfonate), a nondenaturing zwitterionic detergent], 0.5% (w/v) ASB-14 (amidosulfobetaine-14, a zwitterionic detergent), 0.5% (v/v) ampholytes pH 3-10 (Bio-Rad), 0.5% (v/v) immobilized pH gradient (IPG) buffer pH 3-10 (Amersham-Pharmacia Biotech) and 65 mM dithiothreitol). The samples were quickly vortexed to mix sera with Rehydration Buffer. Four to six mg of protein were loaded for analysis. […] Quantitation utilized an algorithm developed for this purpose. […]

Molecule | NADH concentration at which maximum ENOX2 activity was achieved [1] | increase in spot size and density of ENOX2 [2] | cross-reactivity with immunoglobulin chain proteins [3]
NC(=O)C1=CN([C@@H]2O[C@H](COP(=O)(O)OP(=O)(O)OC[C@H]3O[C@@H](n4cnc5c(N)ncnc54)[C@H](O)[C@@H]3O)[C@@H](O)[C@H]2O)C=CC1 [NADH] | about 500 μM | two-fold increase | 
B1 |  |  | weakly cross-reactive
